Laboratory results published in article PMC8571282 (Nature Communications, 2021).
Several values for one entry are separate records, joined by “and”; a condition that tells them apart may be missing. Identical values can stand only once. Like-named read-outs stand apart in the source and are kept apart here.

What was measured:
[1] = system: SARS-CoV-2 (WA1/2020 and VOC α, β, γ); assay: microbe, parasite or virus in culture; type: cell-based; conditions: Severe acute respiratory syndrome coronavirus 2, Vero C1008; read-out: Half-maximal effective concentrations (EC50), range
SARS-CoV-2 WA1/2020 = type: in vivo, ferret (Mustela putorius furo)
[2] = system: SARS-CoV-2 VOC γ (BZ/2021); type: in vivo, ferret (Mustela putorius furo)
[3] = type: in vivo, ferret (Mustela putorius furo); conditions: Fig 3e, Row 1 (time), b.i.d.
[4] = Fig 4b, […], 10 mg/kg b.i.d., Time 0.0
[5] = Fig 4b, […], 10 mg/kg b.i.d., Time 0.5
[6] = Fig 4b, […], 10 mg/kg b.i.d., Time 1.0
[7] = Fig 4b, […], 10 mg/kg b.i.d., Time 1.5
[8] = Fig 4b, […], 10 mg/kg b.i.d., Time 2.0
[9] = Fig 4b, […], 10 mg/kg b.i.d., Time 2.5
[10] = Fig 4b, […], 10 mg/kg b.i.d., Time 3.0
[11] = Fig 4b, […], 10 mg/kg b.i.d., Time 3.5
[12] = Fig 4b, […], 10 mg/kg b.i.d., Time 4.0
[13] = Fig 4b, […], 10 mg/kg b.i.d., all 9 time points
[14] = headed Fig 3c, […], 10 mg/kg b.i.d., Time 0
[15] = headed Fig 3c, […], 10 mg/kg b.i.d., Time 1
[16] = headed Fig 3c, […], 10 mg/kg b.i.d., Time 2
[17] = headed Fig 3c, […], 10 mg/kg b.i.d., Time 3
[18] = headed Fig 3c, […], 10 mg/kg b.i.d., Time 4
[19] = headed Fig 3c, […], 10 mg/kg b.i.d., all 5 time points

SMILES: CC(C)C(=O)OCC1OC(C#N)(c2ccc3c(N)ncnn23)C(OC(=O)C(C)C)C1OC(=O)C(C)C (centres unmarked) [GS-621763]
- EC50 [1]: 110 to 730 nM
- Transform of Nasal turbinate titers, Mean (treated) (SARS-CoV-2 WA1/2020; Fig 2f, 20 mg kg-1 b.i.d., sample size 4): 2.037
- Transform of Nasal turbinate titers, Difference between means (C - A) ± SEM (SARS-CoV-2 WA1/2020; Fig 2f, treated minus Vehicle, 20 mg kg-1 b.i.d., unpaired t test): -2.239 ± 0.3026
- Transform of Small Intestine copies/gram, Mean (treated) (SARS-CoV-2 WA1/2020; Fig 2i, 20 mg kg-1 b.i.d., sample size 4): 0
- Transform of Small Intestine copies/gram, Difference between means (C - A) ± SEM (SARS-CoV-2 WA1/2020; Fig 2i, treated minus Vehicle, 20 mg kg-1 b.i.d., unpaired t test): -1.018 ± 1.018
- Transform of Large Intestine copies/gram, Mean (treated) (SARS-CoV-2 WA1/2020; Fig 2j, 20 mg kg-1 b.i.d., sample size 4): 0
- Transform of Large Intestine copies/gram, Difference between means (C - A) ± SEM (SARS-CoV-2 WA1/2020; Fig 2j, treated minus Vehicle, 20 mg kg-1 b.i.d., unpaired t test): -1.911 ± 1.104
- Transform of Nasal Turbinate RNA copies/g, Mean (treated) (SARS-CoV-2 WA1/2020; Fig 2h, 20 mg kg-1 b.i.d., sample size 4): 3.868
- Transform of Nasal Turbinate RNA copies/g, Difference between means (C - A) ± SEM (SARS-CoV-2 WA1/2020; Fig 2h, treated minus Vehicle, 20 mg kg-1 b.i.d., unpaired t test): -2.950 ± 0.3528
- SARS-CoV-2 RNA copies in lungs (SARS-CoV-2 WA1/2020; in vivo): not detected
- SARS-CoV-2 infectious particles in lungs (SARS-CoV-2 WA1/2020; in vivo): 109 pfu
- Virus titers from nasal lavages (SARS-CoV-2 WA1/2020; in vivo): 9 pfu
- shed SARS-CoV-2 load in nasal lavages (SARS-CoV-2 WA1/2020; in vivo): transiently detectable in lavages of only one ferret
- viral RNA copy numbers in turbinates, difference between vehicle and treatment groups (SARS-CoV-2 WA1/2020; in vivo): three
- virus in nasal turbinates 4 days after infection (SARS-CoV-2 WA1/2020; in vivo): undetectable
- Nasal lavage titer, Mean Diff. Vehicle - GS-621763 [2, 4]: 0
- Nasal lavage titer, group mean (Mean 2; Transform of Brazil - Nasal Lavage Titer) [2, 4]: 0.699
- Nasal lavage titer, Mean Diff. Vehicle - GS-621763 [2, 5]: 0
- Nasal lavage titer, group mean (Mean 2; Transform of Brazil - Nasal Lavage Titer) [2, 5]: 0.699
- Nasal lavage titer, Mean Diff. Vehicle - GS-621763 [2, 6]: 0
- Nasal lavage titer, group mean (Mean 2; Transform of Brazil - Nasal Lavage Titer) [2, 6]: 0.699
- Nasal lavage titer, Mean Diff. Vehicle - GS-621763 [2, 7]: 0.7768
- Nasal lavage titer, group mean (Mean 2; Transform of Brazil - Nasal Lavage Titer) [2, 7]: 0.699
- Nasal lavage titer, Mean Diff. Vehicle - GS-621763 [2, 8]: 1.969
- Nasal lavage titer, group mean (Mean 2; Transform of Brazil - Nasal Lavage Titer) [2, 8]: 0.8495
- Nasal lavage titer, Mean Diff. Vehicle - GS-621763 [2, 9]: 2.801
- Nasal lavage titer, group mean (Mean 2; Transform of Brazil - Nasal Lavage Titer) [2, 9]: 0.7742
- Nasal lavage titer, Mean Diff. Vehicle - GS-621763 [2, 10]: 2.882
- Nasal lavage titer, group mean (Mean 2; Transform of Brazil - Nasal Lavage Titer) [2, 10]: 0.7742
- Nasal lavage titer, Mean Diff. Vehicle - GS-621763 [2, 11]: 2.92
- Nasal lavage titer, group mean (Mean 2; Transform of Brazil - Nasal Lavage Titer) [2, 11]: 0.699
- Nasal lavage titer, Mean Diff. Vehicle - GS-621763 [2, 12]: 2.821
- Nasal lavage titer, group mean (Mean 2; Transform of Brazil - Nasal Lavage Titer) [2, 12]: 0.699
- Nasal lavage titer, column mean of GS-621763 over all times [2, 13]: 0.7324
- Nasal lavage titer, difference between column means (Vehicle - GS-621763) [2, 13]: 1.574
- Nasal turbinate RNA, Mean Diff. Vehicle vs. GS-621763 ([2]; Fig 4e, […], 10 mg/kg b.i.d.): 3.96
- Nasal turbinate RNA, group mean of GS-621763-treated source animals (Transform of Brazil - Nasal Turbinate RNA) ([2]; Fig 4e, […], 10 mg/kg b.i.d.): 5.208
- Turbinate titers, Mean Diff. Vehicle vs. GS-621763 ([2]; Fig 4d, […], 10 mg/kg b.i.d.): 3.511
- Turbinate titers, group mean of GS-621763-treated source animals (Transform of Brazil - Turbinate Titers) ([2]; Fig 4d, […], 10 mg/kg b.i.d.): 0.9542
- Nasal lavage RNA, Mean Diff. Vehicle - GS-621763 [2, 14]: 0
- Nasal lavage RNA, group mean (Mean 2; Transform of Brazil - Nasal Lavage RNA) [2, 14]: 0
- Nasal lavage RNA, Mean Diff. Vehicle - GS-621763 [2, 15]: 0.6874
- Nasal lavage RNA, group mean (Mean 2; Transform of Brazil - Nasal Lavage RNA) [2, 15]: 2.265
- Nasal lavage RNA, Mean Diff. Vehicle - GS-621763 [2, 16]: 3.062
- Nasal lavage RNA, group mean (Mean 2; Transform of Brazil - Nasal Lavage RNA) [2, 16]: 2.426
- Nasal lavage RNA, Mean Diff. Vehicle - GS-621763 [2, 17]: 4.178
- Nasal lavage RNA, group mean (Mean 2; Transform of Brazil - Nasal Lavage RNA) [2, 17]: 2.173
- Nasal lavage RNA, Mean Diff. Vehicle - GS-621763 [2, 18]: 3.536
- Nasal lavage RNA, group mean (Mean 2; Transform of Brazil - Nasal Lavage RNA) [2, 18]: 2.653
- Nasal lavage RNA, column mean of GS-621763 over all times [2, 19]: 1.903
- Nasal lavage RNA, difference between column means (Vehicle - GS-621763) [2, 19]: 2.293
- Infectious virus titer in nasal lavage (Fig 4B) ([2]; in vivo, 10 mg/kg): 5 pfu and 10 pfu
- SARS-CoV-2 RNA copies in lungs (Fig 4G) ([2]; in vivo, 10 mg/kg): not detected
- lowering of viral RNA copies in nasal lavages and turbinates ([2]; in vivo, po, 10 mg/kg): over three orders of magnitude
- shed virus burden and tissue titers ([2]; in vivo, po, 10 mg/kg): undetectable levels
- Bodyweight, Mean 2 (treated group) ([3]; 3 mg/kg): 100
- Bodyweight, Mean Diff. (Vehicle vs. treated) ([3]; 3 mg/kg): 0
- Bodyweight, Mean 2 (treated group) ([3]; 10 mg/kg): 100
- Bodyweight, Mean Diff. (Vehicle vs. treated) ([3]; 10 mg/kg): 0
